# Data from patent US7462598B2, “Antimicrobial theta defensins, analogs thereof, and methods of use” (priority 2002, dated 2008).
# Bridge positions count the residues as written; N and C are the ends. Peptide text beside a SMILES is read from it.
# Key:
# C. albicans 16820 = assay: Cell-suspension microbicidal assay (MMC); assay type: cell-based, Candida albicans; conditions: for MMC, C. albicans: lowest concentration that reduced cell viability by 99.9%, 10 mM PIPES, 5 mM glucose, pH 7.4, 2 h 37° C.
# Description: (§1) To test microbicidal activities, the activities of each peptide against S. aureus 502a, E. coli ML35, and C. albicans 16820 were assessed essentially as described in Example I with modifications to allow for simultaneous analysis of all twenty peptides. Briefly, two-fold serial dilutions of each peptide (in 0.01% acetic acid 0.062-8.0 μg/ml final concentrations) were mixed with 10 mM PIPES, pH 7.4, containing 5 mM glucose in sterile polystyrene 96-well plates (Corning, N.Y.). Aliquots of log-phase bacteria or yeast were added to a 2×10^6 CFU/ml final density as determined by A620. After 2 h incubation at 37° C., 15 μl of the incubation mixture was removed and serially diluted ten-fold from 1:10 to 1:10^6 in trypticase soy broth (bacteria) or Sabaraud dextrose broth (C. albicans). The diluted cell suspensions were grown 24-48 h at 37° C. until cell pellets were visible. Microbicidal activity was determined as absence of growth and was correlated to CFU/ml in control experiments where activity was determined in parallel by colony counting (see Example I). Absence of growth at the 1:10^3 dilution is equivalent to a 3-log reduction in microbial viability.
# (§2) The microbicidal activities of each peptide against E. coli ML35, S. aureus 502a, and C. albicans 16820 were determined with cell-suspension microbicidal assays in 96-well plates (see Example II). Briefly, log-phase cells (2×10^6 CFU/ml final) were incubated with increasing concentrations of peptides (0-8 μg/ml final) in 50 μl of 10 mM PIPES, 5 mM glucose, pH 7.4, for 2 h at 37° C. Incubation mixtures were diluted 1:10 to 1:10^6 with trypticase-soy broth (bacteria) or Sabaraud dextrose broth (fungi) and incubated at 37° C. for 24-48 h until cell pellets were visible. Microbicidal activities (confirmed in control experiments as described in Example II) were determined as the absence of a cell pellet in the various dilutions. Peptide concentrations that caused ≧99.9% killing (absence of a cell pellet at 1:10^3 dilution) were taken as the minimum microbicidal concentrations (MMC).
# S. aureus 502a [1] = assay type: cell-based, Staphylococcus aureus; conditions: 10% normal human serum; FIG. 7
# Description: Dose-dependent staphylocidal activity of each peptide was determined in assays containing 10% normal human serum. Percentages of killing are relative to activities of peptide-containing incubations in which serum was omitted.
# To determine the effects of serum, salt, calcium chloride and magnesium chloride on microbicidal activities, peptide activities were determined in assays containing varying ionic strength, divalent cations, and serum. The effect of serum on staphylocidal activity of each peptide was determined by incubating 1×10^6 CFU/ml of S. aureus 502a with increasing peptide concentrations (0.5-4 μg/ml) in 10 mM PIPES, pH 7.4, containing 10% normal human serum for 2 h at 37° C. The effect of sodium chloride on staphylocidal activities was assessed with 5 μg/ml of each peptide in 10 mM PIPES, pH 7.4, containing varying concentrations of sodium chloride (0-160 mM). Effects of divalent cations, CaCl2, or MgCl2 (0-5.6 mM) were assessed in microbicidal assays against E. coli ML35. Bactericidal activities were determined by colony counting (see Example II), and microbicidal potencies were expressed as percent killing as follows:
# [formula] where A=surviving bacteria (CFU/ml) after initial incubation with each peptide in buffer containing serum, salt, or divalent cations and Ao=bacterial CFU/ml in the “no-peptide” controls.
# E. coli ML35 [2] = assay: Membrane permeabilization assay (ONPG hydrolysis); assay type: cell-based, Escherichia coli; conditions: rates at 1 μg/ml concentration of each peptide
# Description: For the membrane permeabilization assay, the permeabilization of bacterial cytoplasmic membranes was determined by measuring hydrolysis of o-nitrophenyl-β-D-galactcpyranoside (ONPG) in E. coli ML35 (Sitaram et al., FEBS Lett. 303:265-268 (1992); Lehrer et al.,. J. Immunol. Methods 108:153-158 (1988)). Peptides dissolved in 5 μl of 0.01% acetic acid were two-fold serially diluted with 10 mM PIPES, pH 7.4, containing 3 mM ONPG, to final peptide concentrations of 0-8.0 μg/ml. Log-phase bacteria, prepared in PIPES buffer as described for the microbicidal assay (see Example I), were added to 1×10^6 CFU/ml final density in a final volume of 90 μl. ONPG hydrolysis was measured at 405 nm for 60 min using a SpectraMAX 190 plate reader and SOFTmaxPRO 3.1 (Molecular Devices Corp., CA). […]
# S. aureus 502a [3] = assay: Cell-suspension microbicidal assay (MMC); assay type: cell-based, Staphylococcus aureus; conditions: for MMC, S. aureus: lowest concentration that reduced cell viability by 99.9%, 10 mM PIPES, 5 mM glucose, pH 7.4, 2 h 37° C.
# Description: as §1, §2
# [4] = system: S. aureus 502a, E. coli ML35, and C. albicans 16820; assay: Cell-suspension microbicidal assay, statements across the test organisms (lowest MMC, overall ranges); assay type: cell-based; conditions: peptide concentration that kill 99.9% of either S. aureus, E. coli, or C. albicans; lowest MMC value
# Description: as §1, §2
# (§3) A selectivity index (SI=H/M) was calculated as a ratio of a peptide concentration (μg/ml) that causes 3% hemolysis (H) obtained from a dose-dependent hemolysis plot over 0.3 to 3 μg/ml of each peptide in PBS and the lowest MMC value (M) for any of the three test microorganisms (see Example II; Table 2).
# human erythrocytes = assay: Hemolysis assay; assay type: cell-based
# Description: For the hemolysis assay, the hemolytic activity of each peptide was determined by the method of Tam et al. (Tam et al., Eur. J. Biochem. 267:3289-3300 (2000)). Blood was obtained from a healthy donor in accordance to a protocol approved by the Institutional Review Board. Normal human serum was prepared from the same individual and stored at −20° C. Red blood cells (RBC) were prepared from blood collected in EDTA. RBC were harvested at 234×g for 10 min, 22° C., washed four times with 10 mM sodium phosphate, 150 mM NaCl, pH 7.4 (PBS), containing 4 mM EDTA and resuspended in PBS without EDTA. Peptides dissolved in 10 μl 0.01% HOAc were diluted with PBS to final concentrations of 0.3-100 μg/ml. RBC were added to a 2% final density in 100 μl. Incubation mixtures were also prepared with 10% serum. After 1 h incubation at 37° C., the cell suspensions were centrifuged at 234×g for 10 min, 22° C. Fifty-μl samples of the supernatants were removed, and the absorbance at 405 nm (A) was measured. Hemolytic activity of each peptide was calculated relative to lysis by 1% NP-40 using the following formula:
# as §3
# E. coli ML35 [5] = assay: Cell-suspension microbicidal assay (MMC); assay type: cell-based, Escherichia coli; conditions: lowest concentration that reduced cell viability by 99.9%; 10 mM PIPES, 5 mM glucose, pH 7.4; 2 h 37° C.
# Description: as §1, §2
# white blood cells = assay: Cytokine-antibody array of supernatants of white blood cells (ex vivo LPS model); assay type: cell-based; conditions: 18 h, relative to control supernatants
# Description: The anti-inflammatory properties of RTD-1 were evaluated by determining the relative levels of cytokines produced by stimulated white blood cells. Blood was obtained from healthy donors in accordance with institutional guidelines. Serum was prepared from the same donor following coagulation and high-speed centrifugation (12,000-15,000 ×g). White blood cells, (WBC) were prepared from EDTA anti-coagulated blood using an established protocol. WBC were suspended in RPMI 1640 (Gibco; Invitrogen, Carlsbad Calif.) containing 10% FBS and 1% autologous serum. Aliquots containing 2×10^6 cells were added to each well of a sterile 12-well plate, and cells were allowed to incubate for 18 h at 37° C. in a humidified incubator with 5% carbon dioxide. […] Cell-free supernatants were collected by centrifugation at 12,000×g and incubated with cytokine-antibody arrays per the manufacturer's protocol (RayBiotech; Norcross Ga.). The cytokines on each array were visualized with a chemi-luminescent kit (Pierce; Rockford Ill.) and enumerated by spot density analysis with ChemiImager 5.5 (Alpha Innotech; San Leandro Calif.).
# [6] = LPS (100 ng/ml) + RTD-1 (100 ng/ml)
structure (smiles),measurement,setting,value
"CC(C)C[C@H](NC(=O)[C@H](CCCNC(=N)N)NC(=O)CNC(=O)CNC(=O)[C@@H](N)CCCNC(=N)N)C(=O)N[C@H]1CSSC[C@@H](C(=O)N[C@H](C(=O)NCC(=O)N[C@@H](CCCNC(=N)N)C(N)=O)C(C)C)NC(=O)[C@H](C(C)C)NC(=O)[C@@H]2CSSC[C@H](NC(=O)[C@H](Cc3ccc(O)cc3)NC1=O)C(=O)N[C@@H](CCCNC(=N)N)C(=O)N[C@@H](CCCNC(=N)N)C(=O)N[C@@H](CCCNC(=N)N)C(=O)N[C@@H](Cc1ccccc1)C(=O)N2 [PG-1, reference compound]","MMC, C. albicans",C. albicans 16820,0.8 µg/mL
same,staphylocidal activity in assay containing serum (in words),S. aureus 502a [1],unaffected
same,ONPG hydrolysis,E. coli ML35 [2],11.3 (A405/sec) · 10^−5
same,"MMC, S. aureus",S. aureus 502a [3],0.4 µg/mL
same,M,[4],0.38 µg/mL
"CC(C)C[C@@H]1NC(=O)[C@H](CCCNC(=N)N)NC(=O)CNC(=O)CNC(=O)[C@H](CCCNC(=N)N)NC(=O)[C@H](CCCNC(=N)N)NC(=O)CNC(=O)[C@H](C(C)C)NC(=O)[C@@H]2CSSC[C@H](NC1=O)C(=O)N[C@@H](Cc1ccc(O)cc1)C(=O)N[C@H]1CSSC[C@H](NC(=O)[C@H](Cc3ccccc3)NC(=O)[C@H](CCCNC(=N)N)NC(=O)[C@H](CCCNC(=N)N)NC(=O)[C@H](CCCNC(=N)N)NC1=O)C(=O)N[C@@H](C(C)C)C(=O)N2 [cPG-1] (cyclo(GGRLCYCRRRFCVCVGRR); disulfide 5-14, 7-12)",fold lower candidacidal potency than native PG-1,"C. albicans 16820; from MMC, Table 2",3 fold
same,"MMC, C. albicans",C. albicans 16820,2.5 µg/mL
same,hemolysis,human erythrocytes,40-50%
same,ONPG hydrolysis,E. coli ML35 [2],11.0 (A405/sec) · 10^−5
same,"MMC, E. coli",E. coli ML35 [5],1.0 µg/mL
same,fold lower staphylocidal potency than native PG-1,"S. aureus 502a [3]; from MMC, Table 2",5 fold
same,"MMC, S. aureus",S. aureus 502a [3],2.0 µg/mL
same,M,[4],1 µg/mL
"CC[C@H](C)[C@@H]1NC(=O)[C@@H]2CSSC[C@H](NC(=O)[C@H](CCCNC(=N)N)NC(=O)[C@@H]3CSSC[C@H](NC1=O)C(=O)N[C@@H]([C@@H](C)O)C(=O)N[C@@H](CCCNC(=N)N)C(=O)NCC(=O)N[C@@H](Cc1ccccc1)C(=O)N3)C(=O)N[C@@H](CC(C)C)C(=O)N[C@H]1CSSC[C@H](NC(=O)[C@H](C(C)C)NC(=O)CNC(=O)[C@H](CCCNC(=N)N)NC(=O)[C@H](CCCNC(=N)N)NC1=O)C(=O)N[C@@H](CCCNC(=N)N)C(=O)N2 [RTD-1] (cyclo(GFCRCLCRRGVCRCICTR); disulfide 3-16, 5-14, 7-12)",ENA-78 fold increase,white blood cells; [6],10 fold
same,GCSF fold increase,white blood cells; [6],1 fold
same,GM-CSF fold increase,white blood cells; [6],1 fold
same,GRO fold increase,white blood cells; [6],19 fold
same,IFN-γ fold increase,white blood cells; [6],60 fold
same,IL-1β fold increase,white blood cells; [6],118 fold
same,IL-2 fold increase,white blood cells; [6],1 fold
same,IL-5 fold increase,white blood cells; [6],118 fold
same,IL-6 fold increase,white blood cells; [6],2 fold
same,IL-7 fold increase,white blood cells; [6],1 fold
same,IL-10 fold increase,white blood cells; [6],2 fold
same,MCP-2 fold increase,white blood cells; [6],4 fold
same,MCSF fold increase,white blood cells; [6],1 fold
same,MDC fold increase,white blood cells; [6],4 fold
same,MIP-1-δ fold increase,white blood cells; [6],1 fold
same,RANTES fold increase,white blood cells; [6],237 fold
same,SCF fold increase,white blood cells; [6],1 fold
same,SDF-1 fold increase,white blood cells; [6],178 fold
same,TARC fold increase,white blood cells; [6],60 fold
same,TGF-β1 fold increase,white blood cells; [6],1 fold
same,TNF-α fold increase,white blood cells; [6],1 fold
same,ENA-78 fold increase,"white blood cells; stimulus alone, 100 ng/ml",1 fold
same,GCSF fold increase,"white blood cells; stimulus alone, 100 ng/ml",1 fold
same,GM-CSF fold increase,"white blood cells; stimulus alone, 100 ng/ml",1 fold
same,GRO fold increase,"white blood cells; stimulus alone, 100 ng/ml",4 fold
same,IFN-γ fold increase,"white blood cells; stimulus alone, 100 ng/ml",1 fold
same,IL-1β fold increase,"white blood cells; stimulus alone, 100 ng/ml",178 fold
same,IL-2 fold increase,"white blood cells; stimulus alone, 100 ng/ml",1 fold
same,IL-5 fold increase,"white blood cells; stimulus alone, 100 ng/ml",60 fold
same,IL-6 fold increase,"white blood cells; stimulus alone, 100 ng/ml",2 fold
same,IL-7 fold increase,"white blood cells; stimulus alone, 100 ng/ml",1 fold
same,IL-10 fold increase,"white blood cells; stimulus alone, 100 ng/ml",1 fold
same,MCP-2 fold increase,"white blood cells; stimulus alone, 100 ng/ml",2 fold
same,MCSF fold increase,"white blood cells; stimulus alone, 100 ng/ml",60 fold
same,MDC fold increase,"white blood cells; stimulus alone, 100 ng/ml",2 fold
same,MIP-1-δ fold increase,"white blood cells; stimulus alone, 100 ng/ml",1 fold
same,RANTES fold increase,"white blood cells; stimulus alone, 100 ng/ml",1 fold
same,SCF fold increase,"white blood cells; stimulus alone, 100 ng/ml",1 fold
same,SDF-1 fold increase,"white blood cells; stimulus alone, 100 ng/ml",1 fold
same,TARC fold increase,"white blood cells; stimulus alone, 100 ng/ml",1 fold
same,TGF-β1 fold increase,"white blood cells; stimulus alone, 100 ng/ml",1 fold
same,TNF-α fold increase,"white blood cells; stimulus alone, 100 ng/ml",1 fold
same,"MMC, C. albicans",C. albicans 16820,1.0 µg/mL
same,H,"human erythrocytes; peptide concentration that causes 3% hemolysis, calculated from dose-dependent hemolysis plot over 0.3-3 μg/ml in PBS",5.5 µg/mL
same,ONPG hydrolysis,E. coli ML35 [2],9.0 (A405/sec) · 10^−5
same,"MMC, E. coli",E. coli ML35 [5],2.0 µg/mL
same,"MMC, S. aureus",S. aureus 502a [3],1.0 µg/mL
same,M,[4],1 µg/mL
